Reference: US9446007B2, “Methods for maintaining or improving health, well-being and/or a physiological function in a subject” (DYNAMIS THERAPEUTICS, INC., priority 2012, dated 2016)

Columns and labels:
[1] = system: albumin/creatinine ratio; assay: Urinary albumin/creatinine; assay type: in vivo, KK.Cg-A^y/+/J and KK.Cg-A^+/+/J mice; conditions: 18 mM in drinking water, 12 weeks, not significant
Description: Urinary creatinine and albumin levels were measured in KK.Cg-A^y/+/J “mutant” diabetic mice and KK.Cg-A^+/+/J “control” mice treated with or without 18 mM meglumine hydrochloride in the drinking water for 12 weeks.

[2] = Effects of meglumine in a human subject (Example 11): blood lipids, lipoproteins, inflammation markers; assay type: in vivo; conditions: person, type 2 diabetes, 3×500 mg orally, with metformin
Description: A person, suffering from type 2 diabetes, overweight (height of 5 feet 1 inch, and weight of 129 pounds, as of month 0) and with difficulty to lose weight through dieting and exercise, was administered meglumine hydrochloride (3×500 mg) orally over the period of 8 months. Over the duration of the study the subject was also administered metformin orally to manage their type 2 diabetes. The subject's blood was analyzed for lipids, lipoprotein particles and apolipoproteins, and inflammation/oxidation markers.

[3] = Effects of meglumine in a human subject (Example 7); assay type: in vivo; conditions: person on a blood thinner; orally daily, 1 month
From the text: A person on a blood thinner medication was orally administered meglumine hydrochloride on a daily basis over the period of 1 month.

[4] = Effects of meglumine in a human subject (Example 6); assay type: in vivo; conditions: orally daily, one month
From the text: A person suffering from high blood pleasure was orally administered meglumine hydrochloride on a daily basis over the period of one month.

[5] = system: triglyceride; assay: Serum triglyceride levels; assay type: in vivo, KK.Cg-A^y/+/J diabetic mice; conditions: 18 mM in drinking water for 32 weeks; n=9; control 752.21±201.29; p<0.001
Description: Serum triglyceride levels were measured in KK.Cg-A^y/+/J diabetic mice treated with 18 mM meglumine hydrochloride in the drinking water for 32 weeks. […] A t-test was used to compare the mean values and a p<0.001 was calculated, indicating the decrease in plasma triglycerides in the meglumine treated mice is statistically significant.

[6] = Effects of meglumine in a human subject (Example 9); assay type: in vivo; conditions: orally daily, 7 months
From the text: A person suffering from high blood sugar was orally administered meglumine hydrochloride on a daily basis over the period of 7 months.

[7] = Effects of meglumine in a human subject (Example 8); assay type: in vivo; conditions: overweight person, 500-1,500 mg orally daily, 14 months
Description: A person was overweight and suffering from fatty liver, experienced sore joints, lacked energy and required extended recovery time after exercise & travel, was orally administered 500-1,500 mg of meglumine hydrochloride on a daily basis over the period of 14 months.

[8] = Effects of meglumine in a human subject (Example 10); assay type: in vivo; conditions: person
Description: A person, suffering from scleroderma and type 2 diabetes, overweight and with difficulty to lose through dieting and exercise, experiencing less energy than when younger, was administered meglumine hydrochloride (500 mg to 2000 mg) orally almost every day over 5 years.

[9] = Effects of meglumine in a human subject (Example 5); assay type: in vivo; conditions: person, 500-1,500 mg orally daily over 5 years
Description: A person suffering from right knee joint pain, and otherwise in good health, was orally administered 500-1,500 mg of meglumine hydrochloride on a daily basis over the period of 5 years (with two months off).

[10] = 500 mg to 2000 mg orally over 5 years

CNC[C@H](O)[C@@H](O)[C@H](O)[C@H](O)CO.Cl [meglumine hydrochloride]
urinary albumin/creatinine ratio ([1]; KK.Cg-A^+/+/J control mice, without meglumine 2.5±1.2): 1.6±1.8 | urinary albumin/creatinine ratio ([1]; KK.Cg-A^y/+/J mutant diabetic mice, without meglumine 17.3±15.4): 12.4±8.7 | Apo B:Apo A-I ratio (calculated) ([2]; month 8 (month 0: 0.73)): 0.45 | Lp(a) mass ([2]; month 8 (month 0: 5)): 6 mg/dL | HDL2-C ([2]; month 8 (month 0: 19)): 22 mg/dL | % sdLDL-C (calculated) ([2]; month 8 (month 0: 35)): 25% | HDL-P ([2]; month 8 (month 0: 44.3)): 43.7 μmol-L | sdLDL-C ([2]; month 8 (month 0: 56)): 28 mg/dL | Lipids: HDL-C ([2]; month 8 (month 0: 69)): 71 mg/dL | Apo B ([2]; month 8 (month 0: 133)): 79 mg/dL | Lipids: triglycerides ([2]; month 8 (month 0: 135)): 82 mg/dL | Lp-PLA2 ([2]; month 8 (month 0: 152)): 172 ng/mL | Lipids: LDL-C direct ([2]; month 8 (month 0: 160)): 111 mg/dL | Apo A-I ([2]; month 8 (month 0: 183)): 176 mg/dL | Lipids: non-HDL-C (calculated) ([2]; month 8 (month 0: 196)): 134 mg/dL | Lipids: total cholesterol ([2]; month 8 (month 0: 265)): 205 mg/dL | fibrinogen ([2]; month 8 (month 0: 332)): 334 mg/dL | LDL-P ([2]; month 8 (month 0: 2,250)): 1,529 nmol/L | hs-CRP ([2]; month 8 (month 0: <0.3)): 0.3 mg/L | need for blood thinner medication [3]: able to discontinue the use of the blood thinner | blood pressure ([4]; person with high blood pressure, reduced from 220/110): around 130/78 | sleep and energy ([4]; person): better sleep and felt more energetic | body weight ([4]; person, at least one dress size): weight loss | serum triglyceride levels [5]: 322.66 ± 158.85 mg/dL | blood glucose level ([6]; person with high blood sugar, decrease from 202): 75 mg/dL | weight loss ([6]; person with high blood sugar, without regain): 25 pounds | mental capacity ([6]; person): increased mental capacity | nail and hair health ([6]; person): improvement in nail and hair health | sexual stamina and sexual performance ([6]; person): dramatically improved sexual stamina and sexual performance | skin condition ([6]; person): improved | vitality or energy levels ([6]; person): improved vitality or energy levels | mental capacity [7]: increased mental capacity | muscle strength [7]: improved muscle strength | nail and hair health [7]: improvement in nail and hair health | sexual stamina and sexual performance [7]: improved sexual stamina and sexual performance | skin condition [7]: improved | vitality or energy levels [7]: improved vitality or energy levels | weight lost per month [7]: approximately 0.5 kg | body weight on average ([7]; from 108 kg): 102 kg | weight lost ([8]; scleroderma and type 2 diabetes, 500 mg to 2000 mg orally almost every day, first two and one half years): over 30 pounds | insulin and creatine/albumin levels ([8]; type 2 diabetes, 500 mg to 2000 mg orally over 5 years): normal | blood glucose level ([8]; type 2 diabetes, minimum dose of 500 mg three times a day): improved | HDL levels ([8]; 500 mg to 2000 mg orally): stayed the same | Lp-PLA level ([8]; 500 mg to 2000 mg orally): went down | fibrinogen homocysteine levels ([8]; 500 mg to 2000 mg orally): stayed the same | eye sight [8, 10]: improved | mental capacity [8, 10]: has not deteriorated | overall energy levels [8, 10]: increased | overall skin tone and texture [8, 10]: improved | CRP level ([8]; 500 mg to 2000 mg orally, from 0.58): < 0.3 | LDL level ([8]; 500 mg to 2000 mg orally, from 209, within the last 16 months): 160 mg/dL | cholesterol levels ([8]; 500 mg to 2000 mg orally, from 300, without diet change or any medicines): 265 mg/dL | body weight [9]: overall weight loss/control effect | increase in arm diameter [9]: 1 inch | mental capacity [9]: increased mental capacity | muscle-to-fat index [9]: increase in muscle-to-fat index | sexual stamina and sexual performance [9]: improved sexual stamina and sexual performance | skin condition [9]: improved | vitality or energy levels [9]: improved vitality or energy levels | military press weights ([9]; from 200 lb): 355 lb
